From patent US20180244660A1, “CYCLOPROPYLDERIVATIVES AND THEIR USE AS KINASE INHIBITORS” (Karyopharm Therapeutics Inc., priority 2015, published 2018)

Key:
Z138 cells = test: MTT cell proliferation assay, Z138 cells; format: cell-based, human; details: Homo sapiens, Z-138, incubation approximately 64-72 hours
Procedure: (§1) The MTT cell proliferation assay was used to study the cytotoxic properties of the compounds. The assay was performed according to the method described by Roche Molecular Biochemicals, with minor modifications. The assay is based on the cleavage of the tetrazolium salt, MTT, in the presence of an electron-coupling reagent. The water-insoluble formazan salt produced must be solubilized in an additional step. Cells grown in a 96-well tissue culture plate were incubated with the MTT solution for approximately 4 hours. After this incubation period, a water-insoluble formazan dye formed. After solubilization, the formazan dye was quantitated using a scanning multi-well spectrophotometer (ELISA reader). […] The cells were seeded at 5,000-10,000 cells in each well of 96-well plate in 100 μL of fresh culture medium and were allowed to attach overnight. The stock solutions of the compounds were diluted in 100 μL cell culture medium to obtain eight concentrations of each test compound, ranging from 1 nM to 30 μM. […] All optical densities were measured at 490 nm using a Vmax Kinetic Microplate Reader (Molecular Devices). In most cases, the assay was performed in duplicate and the results were presented as a mean percent inhibition to the negative control+SE. The following formula was used to calculate the percent of inhibition: Inhibition (%)=(1−(ODo/OD))×100.
(§2) The compounds were tested against MS751, Z138 and 3T3 cells. The MS751 cell line is derived from a metastasis to lymph node of human cervix from a patient diagnosed with squameous cell carcinoma of the cervix. The Z138 cell line is a mature B-cell acute lymphoblastic leukemia cell line derived from a patient with chronic lumphocytic leukemia. 3T3 cells are standard fibroblast cells; they were originally isolated from Swiss mouse embryo tissue.

3T3 cells = test: MTT cell proliferation assay, 3T3 cells; format: cell-based, mouse; details: Mus musculus, NIH3T3; 3T3 fibroblast cells; incubation approximately 64-72 hours
Procedure: as §1, §2

MS751 cells = test: MTT cell proliferation assay, MS751 cells; format: cell-based, human; details: Homo sapiens, incubation approximately 64-72 hours, read-out: MTT Assay IC50 MS 751
Procedure: as §1, §2

## Nc1ccc([C@H]2C[C@@H]2C(=O)NCc2cc3cc(-c4ccc(C(=O)N5CCNCC5)cc4)cc(-c4ccc(F)cc4)c3o2)cn1 (stereo in doubt) [Compound K027, (1S,2S)-2-(6-aminopyridin-3-yl)-N—((7-(4-fluorophenyl)-5-(4-(piperazine-1-carbonyl)phenyl)benzofuran-2-yl)methyl)cyclopropanecarboxamide]
Z138 cells
  IC50: < 1000 nM
3T3 cells
  IC50: > 10000 nM

## Nc1ccc(C2CC2C(=O)NCCCOc2cc(-c3ccc(C(=O)N4CCC(F)(F)CC4)cc3)cc(C(F)(F)F)c2)cn1 (centres unmarked) [Compound K002, 2-(6-aminopyridin-3-yl)-N—(3-(4′-(4,4-difluoropiperidine-1-carbonyl)-5-(trifluoromethyl)biphenyl-3-yloxy)propyl)cyclopropanecarboxamide]
MS751 cells
  IC50: < 1000 nM
Z138 cells
  IC50: < 1000 nM
3T3 cells
  IC50: 1000 to 5000 nM

## Nc1ccc(C2CC2C(=O)NCCOc2ccc(-c3ccc(C(=O)N4CCC(F)(F)CC4)cc3)cc2-c2ccc(F)cc2F)cn1 (centres unmarked) [Compound K003, 2-(6-aminopyridin-3-yl)-N—(2-(3-(2,4-difluorophenyl)-4′-(4,4-difluoropiperidine-1-carbonyl)biphenyl-4-yloxy)ethyl)cyclopropanecarboxamide]
MS751 cells
  IC50: < 1000 nM
Z138 cells
  IC50: < 1000 nM
3T3 cells
  IC50: 5000 to 10000 nM

## Nc1ccc(C2CC2C(=O)NCc2cc3cc(-c4ccc(C(=O)N5CCC(F)(F)CC5)cc4F)cc(-c4ccc(F)cc4)c3o2)cn1 (centres unmarked) [Compound K004, 2-(6-aminopyridin-3-yl)-N—((5-(4-(4,4-difluoropiperidine-1-carbonyl)-2-fluorophenyl)-7-(4-fluorophenyl)benzofuran-2-yl)methyl)cyclopropanecarboxamide]
MS751 cells
  IC50: < 1000 nM
Z138 cells
  IC50: < 1000 nM
3T3 cells
  IC50: > 10000 nM

## Nc1ccc([C@H]2C[C@@H]2C(=O)NCCCOc2cc(-c3ccc(C(=O)N4CCC(F)(F)CC4)cc3)cc(C(F)(F)F)c2)cn1 [Compound K005, (1S,2S)-2-(6-aminopyridin-3-yl)-N—(3-(4′-(4,4-difluoropiperidine-1-carbonyl)-5-(trifluoromethyl)biphenyl-3-yloxy)propyl)cyclopropanecarboxamide]
MS751 cells
  IC50: < 1000 nM
Z138 cells
  IC50: < 1000 nM
3T3 cells
  IC50: < 1000 nM

## Nc1ccc([C@@H]2C[C@H]2C(=O)NCCCOc2cc(-c3ccc(C(=O)N4CCC(F)(F)CC4)cc3)cc(C(F)(F)F)c2)cn1 [Compound K006, (1R,2R)-2-(6-aminopyridin-3-yl)-N—(3-(4′-(4,4-difluoropiperidine-1-carbonyl)-5-(trifluoromethyl)biphenyl-3-yloxy)propyl)cyclopropanecarboxamide]
MS751 cells
  IC50: < 1000 nM
Z138 cells
  IC50: < 1000 nM
3T3 cells
  IC50: 1000 to 5000 nM

## Nc1ccc([C@H]2C[C@@H]2C(=O)NCc2cc3cc(-c4ccc(C(=O)N5CCC(F)(F)CC5)cc4)cc(C(F)(F)F)c3o2)cn1 [Compound K007, (1S,2S)-2-(6-aminopyridin-3-yl)-N—((5-(4-(4,4-difluoropiperidine-1-carbonyl)phenyl)-7-(trifluoromethyl)benzofuran-2-yl)methyl)cyclopropanecarboxamide]
MS751 cells
  IC50: 1000 to 5000 nM
Z138 cells
  IC50: 1000 to 5000 nM
3T3 cells
  IC50: > 10000 nM

## Nc1ccc([C@@H]2C[C@H]2C(=O)NCc2cc3cc(-c4ccc(C(=O)N5CCC(F)(F)CC5)cc4)cc(C(F)(F)F)c3o2)cn1 [Compound K008, (1R,2R)-2-(6-Aminopyridin-3-yl)-N—((5-(4-(4,4-difluoropiperidine-1-carbonyl)phenyl)-7-(trifluoromethyl)benzofuran-2-yl)methyl)cyclopropanecarboxamide]
MS751 cells
  IC50: > 10000 nM
Z138 cells
  IC50: 1000 to 5000 nM
3T3 cells
  IC50: > 10000 nM

## Nc1ccc(C2CC2C(=O)NCc2ccc(-c3ccc(-c4ccc(C(=O)N5CCC(F)(F)CC5)cn4)cc3C(F)(F)F)o2)cn1 (centres unmarked) [Compound K009, 2-(6-aminopyridin-3-yl)-N—((5-(4-(5-(4,4-difluoropiperidine-1-carbonyl)pyridin-2-yl)-2-(trifluoromethyl)phenyl)furan-2-yl)methyl)cyclopropanecarboxamide]
MS751 cells
  IC50: < 1000 nM
Z138 cells
  IC50: < 1000 nM
3T3 cells
  IC50: 5000 to 10000 nM

## Nc1ccc([C@H]2C[C@@H]2C(=O)NCc2cc3cc(-c4ccc(C(=O)N5CCC(F)(F)CC5)cc4)cc(-c4ccc(F)cc4F)c3o2)cn1 [Compound K010, (1S,2S)-2-(6-aminopyridin-3-yl)-N—((7-(2,4-difluorophenyl)-5-(4-(4,4-difluoropiperidine-1-carbonyl)phenyl)benzofuran-2-yl)methyl)cyclopropanecarboxamide]
MS751 cells
  IC50: < 1000 nM
Z138 cells
  IC50: < 1000 nM
3T3 cells
  IC50: 1000 to 5000 nM

## Nc1ccc([C@H]2C[C@@H]2C(=O)NCc2cc3cc(-c4ccc(C(=O)N5CCC(F)(F)CC5)cc4)cc(-c4ccc(F)cc4)c3o2)cn1 [Compound K011, (1S,2S)-2-(6-aminopyridin-3-yl)-N—((5-(4-(4,4-difluoropiperidine-1-carbonyl)phenyl)-7-(4-fluorophenyl)benzofuran-2-yl)methyl)cyclopropanecarboxamide]
MS751 cells
  IC50: < 1000 nM
Z138 cells
  IC50: < 1000 nM
3T3 cells
  IC50: > 10000 nM

## Nc1ccc([C@H]2C[C@@H]2C(=O)NCc2cc3cc(-c4ccc(C(=O)N5CCC(F)(F)CC5)cn4)cc(-c4ccc(F)cc4)c3o2)cn1 [Compound K012, (1S,2S)-2-(6-aminopyridin-3-yl)-N—((5-(5-(4,4-difluoropiperidine-1-carbonyl)pyridin-2-yl)-7-(4-fluorophenyl)benzofuran-2-yl)methyl)cyclopropanecarboxamide]
MS751 cells
  IC50: < 1000 nM
Z138 cells
  IC50: < 1000 nM
3T3 cells
  IC50: 1000 to 5000 nM

## Nc1ccc([C@H]2C[C@@H]2C(=O)NCc2cc3cc(-c4ccc(C(=S)N5CCC(F)(F)CC5)cc4)cc(-c4ccc(F)cc4)c3o2)cn1 [Compound K013, (1S,2S)-2-(6-aminopyridin-3-yl)-N—((5-(4-(4,4-difluoropiperidine-1-carbonothioyl)phenyl)-7-(4-fluorophenyl)benzofuran-2-yl)methyl)cyclopropanecarboxamide]
MS751 cells
  IC50: < 1000 nM
Z138 cells
  IC50: < 1000 nM
3T3 cells
  IC50: 1000 to 5000 nM

## Nc1ccc([C@H]2C[C@@H]2C(=O)NCc2cc3cc(-c4ccc(C(=O)N5CCC(F)(F)CC5)cc4)cc(-c4cccc(F)c4)c3o2)cn1 [Compound K014, (1S,2S)-2-(6-aminopyridin-3-yl)-N—((5-(4-(4,4-difluoropiperidine-1-carbonyl)phenyl)-7-(3-fluorophenyl)benzofuran-2-yl)methyl)cyclopropanecarboxamide]
MS751 cells
  IC50: < 1000 nM
Z138 cells
  IC50: < 1000 nM
3T3 cells
  IC50: 1000 to 5000 nM

## Nc1ccc([C@H]2C[C@@H]2C(=O)NCc2cc3cc(-c4ccc(C(=O)N5CCC(F)(F)CC5)cc4)cc(-c4ccc(F)cc4)c3s2)cn1 [Compound K015, (1S,2S)-2-(6-aminopyridin-3-yl)-N—((5-(4-(4,4-difluoropiperidine-1-carbonyl)phenyl)-7-(4-fluorophenyl)benzo[b]thiophen-2-yl)methyl)cyclopropanecarboxamide]
MS751 cells
  IC50: 1000 to 5000 nM
Z138 cells
  IC50: 1000 to 5000 nM
3T3 cells
  IC50: > 10000 nM

## Nc1ccc([C@H]2C[C@@H]2C(=O)NCc2cc3cc(-c4ccc(C(=O)N5CC(Cl)C5)cc4)cc(-c4ccc(F)cc4)c3o2)cn1 [Compound K016, (1S,2S)-2-(6-aminopyridin-3-yl)-N—((5-(4-(3-chloroazetidine-1-carbonyl)phenyl)-7-(4-fluorophenyl)benzofuran-2-yl)methyl)cyclopropanecarboxamide]
MS751 cells
  IC50: < 1000 nM
Z138 cells
  IC50: < 1000 nM
3T3 cells
  IC50: 1000 to 5000 nM

## Nc1ccc([C@H]2C[C@@H]2C(=O)NCc2cc3cc(-c4ccc(C(=O)N5CCC(F)(F)C5)cc4)cc(-c4ccc(F)cc4)c3o2)cn1 [Compound K017, (1S,2S)-2-(6-aminopyridin-3-yl)-N—((5-(4-(3,3-difluoropyrrolidine-1-carbonyl)phenyl)-7-(4-fluorophenyl)benzofuran-2-yl)methyl)cyclopropanecarboxamide]
MS751 cells
  IC50: < 1000 nM
Z138 cells
  IC50: < 1000 nM
3T3 cells
  IC50: 1000 to 5000 nM

## Nc1ccc([C@H]2C[C@@H]2C(=O)NCc2cc3cc(-c4ccc(C(=O)N5CC(F)(F)C5)cc4)cc(-c4ccc(F)cc4)c3o2)cn1 [Compound K018, (1S,2S)-2-(6-aminopyridin-3-yl)-N—((5-(4-(3,3-difluoroazetidine-1-carbonyl)phenyl)-7-(4-fluorophenyl)benzofuran-2-yl)methyl)cyclopropanecarboxamide]
MS751 cells
  IC50: < 1000 nM
Z138 cells
  IC50: < 1000 nM
3T3 cells
  IC50: 1000 to 5000 nM

## Nc1ccc([C@H]2C[C@@H]2C(=O)NCCc2cc3cc(-c4ccc(C(=O)N5CCC(F)(F)CC5)cc4)cc(-c4ccc(F)cc4)c3o2)cn1 [Compound K019, (1S,2S)-2-(6-aminopyridin-3-yl)-N—(2-(5-(4-(4,4-difluoropiperidine-1-carbonyl)phenyl)-7-(4-fluorophenyl)benzofuran-2-yl)ethyl)cyclopropanecarboxamide]
MS751 cells
  IC50: < 1000 nM
Z138 cells
  IC50: < 1000 nM
3T3 cells
  IC50: 1000 to 5000 nM
